Consider six compounds from ChEMBL document CHEMBL1150438, “Benzimidazole ribonucleosides: Observation of an unexpected nitration when performing non-aqueous diazotizations with t-butyl nitrite” (Bioorg Med Chem Lett, 1992).

For assay [1], the system named is Human betaherpesvirus 5. Kind of assay: Compound was tested for antiviral activity against human cytomegalovirus (HCMV) plaque reduction assay. The format is functional, organism-based.
The subject of a further assay is Human alphaherpesvirus 1. Kind of assay: Compound was tested for antiviral activity against HSV-1. The assay is classed as functional, organism-based.
A further assay has as its system HFF. Kind of assay: Cytotoxicity against human foreskin fibroblasts (HFF) cells. The assay is classed as functional, cell-based.
Assay [2] deals with Human betaherpesvirus 5. Kind of assay: Compound was tested for antiviral activity against human cytomegalovirus (HCMV) yield reduction assay. The assay is classed as functional.

The term IC50 denotes the concentration that gives 50% inhibition. High values mean a need for much substance, low ones inhibition by little substance. With `OC[C@H]1OC(n2c(O)nc3cc(Cl)c(Cl)cc32)[C@H](O)[C@@H]1O` (some centres not stated), the IC50 in the assay with Human betaherpesvirus 5 [1] and in the assay on Human alphaherpesvirus 1 was greater than 100 µM each time.

With `Nc1c(Cl)c(Cl)cc2c1nc(O)n2C1O[C@H](CO)[C@@H](O)[C@H]1O` (some centres not stated), the IC50 with HFF, in the assay with Human betaherpesvirus 5 [1] and with Human alphaherpesvirus 1 was greater than 100 µM each time.

As usually defined, the IC90 is the point of the concentration-response curve where the effect stands at 90%. In the assay on HFF, `OC[C@H]1OC(n2c(I)nc3cc(Cl)c(Cl)cc32)[C@H](O)[C@@H]1O` (some centres not stated) had an IC50 of 127 µM. The same compound had a 90% effect concentration (IC90) in the assay with Human betaherpesvirus 5 [2] of 26 µM.

In the assay on HFF, `Nc1nc2c(ncn2COC(CO)CO)c(=O)[nH]1` [GANCICLOVIR] had an IC50 greater than 100 µM. For the same compound, the 90% effect level in the assay with Human betaherpesvirus 5 [2] (IC90) was put at 2 µM.

For the compound `OC[C@H]1O[C@@H](n2cnc3cc(Cl)c(Cl)cc32)[C@H](O)[C@@H]1O` [DICHLORORIBOBENZIMIDAZOLE], the IC90 in the assay on Human betaherpesvirus 5 [2] worked out at 19 µM.

Take `O=[N+]([O-])c1c(Cl)c(Cl)cc2c1nc(O)n2C1O[C@H](CO)[C@@H](O)[C@H]1O` (some centres not stated): the 50% inhibitory concentration (IC50) in the assay with Human betaherpesvirus 5 [1] and in the assay with Human alphaherpesvirus 1 was greater than 100 µM each time.
